Consider ten compounds from US10703843B2, “Compositions and methods for bonding glues, adhesives, and coatings to surfaces” (University of Virginia Patent Foundation, priority 2014, dated 2020).

Data set [1] can be described thus: Measured solubilities of ECA and PECA in solvents and of solvents in PECA. Conditions: ±10%; for Solubility (wt %) ECA in: solubility of ECA in the listed solvent; for Solubility (wt %) PECA in: solubility of PECA in the listed solvent; for Solubility (wt %) in PECA: solubility of the listed solvent in PECA.
For data set [2] the following is noted: from Ref. [17]; cited from earlier work.
For data set [3] the following is noted: at 20° C.; from Refs [18], [19]; cited from earlier work.

Take `COCCOC` [1,2-dimethoxyethane]: in data set [1], the “Solubility (wt %) ECA in” value is listed as “miscible”, the “Solubility (wt %) PECA in” value is listed as “miscible” and the “Solubility (wt %) in PECA” value was “miscible”.
For the compound `CC(C)=O` [acetone], in data set [1], the “Solubility (wt %) ECA in” value is recorded as “miscible”, the “Solubility (wt %) PECA in” value is “miscible” and the “Solubility (wt %) in PECA” value is recorded as “miscible”. Also, the “ET^N normalized empirical parameter of solvent polarity” value (from here on “ET^N normalized empirical parameter”) in data set [2] is 0.355. The σ surface tension in data set [3] is on record as 24.1 mN/m.
In the case of `C1CCCCC1` [cyclohexane], in data set [2], the “ET^N normalized empirical parameter” value was 0.006. For the same compound, in data set [3], the σ surface tension was 25.2 mN/m.
For `CCOCC` [diethyl ether], in data set [1], the “Solubility (wt %) ECA in” value was “miscible” and the “Solubility (wt %) PECA in” value was found to be 0.10 wt %. Besides, the “ET^N normalized empirical parameter” value in data set [2] is on record as 0.117. For the same compound, in data set [3], the σ surface tension is 17.1 mN/m.
On to `CCOC(C)=O` [ethyl acetate], for which, in data set [2], the “ET^N normalized empirical parameter” value is on record as 0.228. In data set [3], the σ surface tension is on record as 24.1 mN/m.
Take `CCCCCCC` [n-heptane]: in data set [1], the “Solubility (wt %) ECA in” value was determined as 7.5 wt %, the “Solubility (wt %) PECA in” value came out at 0.05 wt % and the “Solubility (wt %) in PECA” value is recorded as 0.4 wt %. The “ET^N normalized empirical parameter” value in data set [2] was 0.012. Besides, the σ surface tension in data set [3] is on record as 20.1 mN/m.
As to `CCCCCC` [n-hexane], the “ET^N normalized empirical parameter” value in data set [2] was 0.009. For the same compound, the σ surface tension in data set [3] is 18.4 mN/m.
For the compound `CCCCC` [n-pentane], in data set [1], the “Solubility (wt %) ECA in” value amounted to 11.4 wt %, the “Solubility (wt %) PECA in” value is on record as 0.11 wt % and the “Solubility (wt %) in PECA” value turned out to be 0.8 wt %. Besides, the “ET^N normalized empirical parameter” value in data set [2] is listed as 0.009. In addition, in data set [3], the σ surface tension is 16.1 mN/m.
As to `Cc1ccccc1` [toluene], in data set [2], the “ET^N normalized empirical parameter” value is 0.099.
Consider xylene, for which, in data set [1], the “Solubility (wt %) ECA in” value was “miscible” and the “Solubility (wt %) PECA in” value is reported as 0.24 wt %. Moreover, the “ET^N normalized empirical parameter” value in data set [2] is given as 0.074. In addition, the σ surface tension in data set [3] is 29.3 mN/m.
